Experimental data as given in US20090011410A1, “METHOD FOR TAILORING ADMINISTRATION OF DRUGS BY QUANTITATION OF MRNA” (priority 2004, published 2009).
“Also recorded” adds a separate entry of the source.

Columns and labels:
BAX mRNA [1] = assay: drug-induced BAX mRNA expression in whole blood of leukemia and lymphoma patients; type: cell-based, human; conditions: leukemic lymphoma patient 2, 2 hours at 37° C., drug concentrations (FIG. 3)
Procedure: The mRNA and cDNA were prepared from whole blood. In brief, home-made 96-well filterplates were placed over collection plates, and 150 μl 5 mM Tris, pH 7.4, was applied. Following centrifugation at 120×g for 1 min at 4° C., 50 μl of blood samples were applied to each well and immediately centrifuged at 120×g for 2 min at 4° C., followed by washing of each well with 300 μl PBS once with centrifugation at 2000×g for 5 min at 4° C. Then, 60 μl stock lysis buffer, containing for example 0.5% N-Lauroylsarcosine, 4×SSC, 10 mM Tris HCl, pH 7.4, 1 mM EDTA, 0.1% IGEPAL CA-630, and 1.791 M guanidine thiocyanate, supplemented with 1% 2-mercaptoethanol (Bio Rad, Hercules, Calif., USA), 0.5 mg/ml proteinase K (Pierce, Rockford, Ill., USA), 0.1 mg/ml salmon sperm DNA (5 Prime Eppendorf/Brinkmann, Westbury, N.Y., USA), 0.1 mg/ml E. coli tRNA (Sigma), a cocktail of 10 mM each of the specific reverse primers shown in Table 1, and standard RNA34 oligonucleotides, were applied to the filterplates, followed by incubation at 37° C. for 10 min. The filterplates were then placed over oligo(dT)-immobilized microplates (GenePlate, RNAture), and centrifuged at 2000×g for 5 min at 4° C. Following overnight storage at 4° C., the microplates were washed with 100 μl plain lysis buffer 3 times, followed by 150 μl of wash buffer (0.5 M NaCl, 10 mM Tris, pH 7.4, 1 mM EDTA) 3 times at 4° C. The cDNA was directly synthesized in each well by adding 30 μl buffer containing 1× RT-butter, 1.25 mM each of dNTP, 4 units rRNasin, and 80 units of MMLV reverse transcriptase (Promega) (without primers), and incubation at 37° C. for 2 hours. The specific primer-primed cDNA existed in solution, and oligo(dT)-primed cDNA stayed immobilized in the microplate. For TaqMan PCR (FIGS. 1, 3, 4), the resultant 4 μl cDNA solution was directly transferred to 384-well PCR plates, to which 5 μl of TaqMan universal master mix (ABI) and 1 μl oligonucleotide cocktail (15 μM each of forward and reverse primer, and 3-6 μM TaqMan probe) were applied, and PCR was conducted in PRISM 7900HT (ABI), with one cycle of 95° C. for 10 min followed by 45 cycles of 95° C. for 30 sec, 55° C. for 30 sec, and 60° C. for 1 min. […] The Ct was determined by analytical software (SDS, ABI).

p21 mRNA, U937 cells = assay: etoposide-induced p21 mRNA expression in cultured U937 cells; type: cell-based, human; conditions: 10 μM etoposide, 2 hours at 37° C. (FIG. 1)
Procedure: (§3) Blood was obtained from healthy adults and from two leukemic non-Hodgkin's malignant lymphoma patients. […] For human experiments, blood aliquots were stimulated with various anti-cancer drugs at 37° C. for 2 hours, then both p21 and BAX mRNA were measured. The anti-cancer drugs used in this study were clinical drugs, and the concentration of each drug was adjusted to typical blood levels 3-6 hours after intravenous administration.
(§4) The mRNA and cDNA were prepared from whole blood. In brief, home-made 96-well filterplates were placed over collection plates, and 150 μl 5 mM Tris, pH 7.4, was applied. Following centrifugation at 120×g for 1 min at 4° C., 50 μl of blood samples were applied to each well and immediately centrifuged at 120×g for 2 min at 4° C., followed by washing of each well with 300 μl PBS once with centrifugation at 2000×g for 5 min at 4° C. […] The Ct was determined by analytical software (SDS, ABI).

p21 mRNA, Jurkat cells = assay: etoposide-induced p21 mRNA expression in cultured Jurkat cells; type: cell-based, human; conditions: even when 100 μM was used (FIG. 1)
Procedure: as §3, §4

PUMA mRNA = assay: drug-induced PUMA mRNA expression in whole blood of leukemia and lymphoma patients; type: cell-based, human; conditions: 2 hours at 37° C.
BAX mRNA [2] = assay: drug-induced BAX mRNA expression in whole blood of healthy adults; type: cell-based, human; conditions: for Bax induction: 20 μM BLM or 100 μM VP-16, 4 hours at 37° C., ΔCt smaller than p21, not induced in 1 or 2 individuals (FIG. 6); for BAX responses compared with p21 and PUMA: 100 μM VP-16 or 20 μM BLM, 2 hours at 37° C., p<0.01 (FIG. 14)
Text: (§1) Blood was obtained from healthy adults and from two leukemic non-Hodgkin's malignant lymphoma patients. U937, KG-1, and Jurkat cells were obtained from American Type Culture Collection (ATCC, Manassas, Va.), and maintained in RPMI 1640 supplemented with 10% fetal calf serum. Of these, U937 cells are a human histiocytic lymphoma cell line, KG-1 cells are a human bone marrow myelogenous leukemia cell line, and Jurkat cells are a human T-cell lymphoblast-like, leukemia derived cell line. […] For human experiments, blood aliquots were stimulated with various anti-cancer drugs at 37° C. for 2 hours, then both p21 and BAX mRNA were measured. The anti-cancer drugs used in this study were clinical drugs, and the concentration of each drug was adjusted to typical blood levels 3-6 hours after intravenous administration.
(§2) The mRNA and cDNA were prepared from whole blood. In brief, home-made 96-well filterplates were placed over collection plates, and 150 μl 5 mM Tris, pH 7.4, was applied. Following centrifugation at 120×g for 1 min at 4° C., 50 μl of blood samples were applied to each well and immediately centrifuged at 120×g for 2 min at 4° C., followed by washing of each well with 300 μl PBS once with centrifugation at 2000×g for 5 min at 4° C. Then, 60 μl stock lysis buffer, containing for example 0.5% N-Lauroylsarcosine, 4×SSC, 10 mM Tris HCl, pH 7.4, 1 mM EDTA, 0.1% IGEPAL CA-630, and 1.791 M guanidine thiocyanate, supplemented with 1% 2-mercaptoethanol (Bio Rad, Hercules, Calif., USA), 0.5 mg/ml proteinase K (Pierce, Rockford, Ill., USA), 0.1 mg/ml salmon sperm DNA (5 Prime Eppendorf/Brinkmann, Westbury, N.Y., USA), 0.1 mg/ml E. coli tRNA (Sigma), a cocktail of 10 mM each of the specific reverse primers shown in Table 1, and standard RNA34 oligonucleotides, were applied to the filterplates, followed by incubation at 37° C. for 10 min. The filterplates were then placed over oligo(dT)-immobilized microplates (GenePlate, RNAture), and centrifuged at 2000×g for 5 min at 4° C. Following overnight storage at 4° C., the microplates were washed with 100 μl plain lysis buffer 3 times, followed by 150 μl of wash buffer (0.5 M NaCl, 10 mM Tris, pH 7.4, 1 mM EDTA) 3 times at 4° C. The cDNA was directly synthesized in each well by adding 30 μl buffer containing 1× RT-butter, 1.25 mM each of dNTP, 4 units rRNasin, and 80 units of MMLV reverse transcriptase (Promega) (without primers), and incubation at 37° C. for 2 hours. The specific primer-primed cDNA existed in solution, and oligo(dT)-primed cDNA stayed immobilized in the microplate. […] The Ct was determined by analytical software (SDS, ABI). […]

p21 mRNA = assay: drug-induced p21 mRNA expression in whole blood of healthy adults; type: cell-based, human; conditions: for p21 mRNA expression: healthy leukocytes, 2 hours at 37° C. (FIG. 1); for kinetics of p21 induction / levels of p21 mRNA upon stimulation: 0-8 hours at 37° C., 20 μM BLM
Text: as §1
The mRNA and cDNA were prepared from whole blood. In brief, home-made 96-well filterplates were placed over collection plates, and 150 μl 5 mM Tris, pH 7.4, was applied. Following centrifugation at 120×g for 1 min at 4° C., 50 μl of blood samples were applied to each well and immediately centrifuged at 120×g for 2 min at 4° C., followed by washing of each well with 300 μl PBS once with centrifugation at 2000×g for 5 min at 4° C. Then, 60 μl stock lysis buffer, containing for example 0.5% N-Lauroylsarcosine, 4×SSC, 10 mM Tris HCl, pH 7.4, 1 mM EDTA, 0.1% IGEPAL CA-630, and 1.791 M guanidine thiocyanate, supplemented with 1% 2-mercaptoethanol (Bio Rad, Hercules, Calif., USA), 0.5 mg/ml proteinase K (Pierce, Rockford, Ill., USA), 0.1 mg/ml salmon sperm DNA (5 Prime Eppendorf/Brinkmann, Westbury, N.Y., USA), 0.1 mg/ml E. coli tRNA (Sigma), a cocktail of 10 mM each of the specific reverse primers shown in Table 1, and standard RNA34 oligonucleotides, were applied to the filterplates, followed by incubation at 37° C. for 10 min. The filterplates were then placed over oligo(dT)-immobilized microplates (GenePlate, RNAture), and centrifuged at 2000×g for 5 min at 4° C. Following overnight storage at 4° C., the microplates were washed with 100 μl plain lysis buffer 3 times, followed by 150 μl of wash buffer (0.5 M NaCl, 10 mM Tris, pH 7.4, 1 mM EDTA) 3 times at 4° C. The cDNA was directly synthesized in each well by adding 30 μl buffer containing 1× RT-butter, 1.25 mM each of dNTP, 4 units rRNasin, and 80 units of MMLV reverse transcriptase (Promega) (without primers), and incubation at 37° C. for 2 hours. The specific primer-primed cDNA existed in solution, and oligo(dT)-primed cDNA stayed immobilized in the microplate. For TaqMan PCR (FIGS. 1, 3, 4), the resultant 4 μl cDNA solution was directly transferred to 384-well PCR plates, to which 5 μl of TaqMan universal master mix (ABI) and 1 μl oligonucleotide cocktail (15 μM each of forward and reverse primer, and 3-6 μM TaqMan probe) were applied, and PCR was conducted in PRISM 7900HT (ABI), with one cycle of 95° C. for 10 min followed by 45 cycles of 95° C. for 30 sec, 55° C. for 30 sec, and 60° C. for 1 min. For SYBR Green PCR (see FIG. 6), cDNA was diluted 3-4 fold in water, and 4 μl cDNA solution was directly transferred to 384-well PCR plates, to which 5 μl of a master mix (BioRad, Hercules, Calif.) and 1 μl of oligonucleotide cocktail (15 μM each of forward and reverse primer) were applied, and PCR was conducted in PRISM 7900HT (ABI), with one cycle of 95° C. for 10 min followed by 45 cycles of 95° C. for 30 sec and 60° C. for 1 min. Each gene was amplified in separate wells. The Ct was determined by analytical software (SDS, ABI).
In 8-well strip microtubes, 1.4 μl of 50× concentrations of drugs or controls (phosphate buffered saline (PBS) or DMSO) were added, and stored at −20° C. until use. […] Seventy μl of fresh heparinized whole blood was added into each well in triplicate, and incubated at 37° C. for 2-8 hours with the cap closed. For radiation treatment, blood was stimulated at designated doses using cesium-137.

[3] = system: p21 mRNA, U937 cells mixed with blood; assay: etoposide-induced p21 mRNA expression from U937 cells mixed in healthy adult blood; type: cell-based, human; conditions: 10 μM etoposide-treated U937, 1,250 U937 cells added to 1 μL blood, vs DMSO-treated U937 (FIG. 2)
Procedure: as §2, with “C.” for “C. Following overnight storage at 4° C., the microplates were washed with 100 μl plain lysis buffer 3 times, followed by 150 μl of wash buffer (0.5 M NaCl, 10 mM Tris, pH 7.4, 1 mM EDTA) 3 times at 4° C. The cDNA was directly synthesized in each well by adding 30 μl buffer containing 1× RT-butter, 1.25 mM each of dNTP, 4 units rRNasin, and 80 units of MMLV reverse transcriptase (Promega) (without primers), and incubation at 37° C. for 2 hours. The specific primer-primed cDNA existed in solution, and oligo(dT)-primed cDNA stayed immobilized in the microplate.”

[4] = system: leukemic non-Hodgkin's malignant lymphoma patient; assay: clinical course of patient 2 (leukemic non-Hodgkin's lymphoma); type: in vivo, human; conditions: patient 2 with continued thrombocytopenia (FIG. 4)
human whole blood = assay: DNA fragmentation (apoptosis) in whole blood by agarose gel electrophoresis; type: cell-based; conditions: 1 day of incubation, 100 μM VP-16, 20 μM BLM (FIG. 5 inset)
Procedure: Using a commercial kit (Puregene, Gentra, Minneapolis, Minn.), genomic DNA was purified from 300 μl each of whole blood with or without treatments. DNA was then analyzed in 3.5% agarose (3:1 NuSieve:agarose, FMC, Rockland, Me.) gel electrophoresis, stained with 0.5 μg/ml ethidium bromide, and photographic images were recorded by AlphaImager (Alpha Innotech, San Leandro, Calif.).
To mimic physiological conditions, whole blood was used, without isolating mononuclear cells. […] After 1 day of incubation, genomic DNA was extracted, and DNA fragmentation was analyzed by agarose gel electrophoresis using ethidium bromide staining.
Genomic DNA was purified from 300 μl each of whole blood with or without treatments, using a commercial kit (Puregene, Gentra, Minneapolis, Minn.). DNA was then analyzed in 3.5% agarose (3:1 NuSieve:agarose, FMC, Rockland, Me.) gel electrophoresis, stained with 0.5 μg/ml ethidium bromide, and photographic images were recorded by Alpha-Iimager (Alpha Innotech, San Leandro, Calif.).

[5] = heparinized whole blood, 100 μM VP-16 (FIG. 5B)

| Molecule | BAX mRNA induction (BAX mRNA [1]) | p21 expression (p21 mRNA, U937 cells) | drug sensitivity (p21 mRNA expression) (p21 mRNA, Jurkat cells) | PUMA induction (PUMA mRNA; AML patient, drug concentrations of b94 (FIG. 8B)) | PUMA response (PUMA mRNA; NHL patient, drug concentrations (FIG. 8C)) | Bax induction (BAX mRNA [2]) | BAX responses compared with p21 and PUMA (BAX mRNA [2]) | p21 induction (p21 mRNA; 10 μM VP-16, 2 hours at 37° C. (FIG. 9A)) | p21 expression (p21 mRNA; 100 μM VP-16, 2 hours at 37° C. (FIG. 9A)) | p21 mRNA expression (p21 mRNA; 10 μM etoposide) | p21 mRNA expression (p21 mRNA; 100 μM etoposide) | kinetics of p21 induction (p21 mRNA; [5]) | levels of p21 mRNA upon stimulation (p21 mRNA; [5]) | peak of transient p21 induction (p21 mRNA; [5]) [h] | p21 mRNA expression [3] | platelet count [4] | fragmentation of DNA (human whole blood) | concentration at which significant induction of p21 was observed (p21 mRNA; 0-20 μM BLM, 4 hours at 37° C. (FIG. 7)) | p21 induction (p21 mRNA; BLM at concentrations as low as 0.2 μM, 2 hours at 37° C., all cases (FIG. 10A)) |
| --- | --- | --- | --- | --- | --- | --- | --- | --- | --- | --- | --- | --- | --- | --- | --- | --- | --- | --- | --- |
| COc1cc([C@@H]2c3cc4c(cc3[C@@H](O[C@@H]3O[C@@H]5CO[C@@H](C)O[C@H]5[C@H](O)[C@H]3O)[C@H]3COC(=O)[C@H]23)OCO4)cc(OC)c1O [VP-16, etoposide] | induced | slight but significant p21 expression | resistant | huge induction | strong PUMA response | induced | significantly less than those of p21 and PUMA | failed to induce p21 in many cases | majority of individuals exhibited increased p21 expression | no significant p21 mRNA expression | expressed significantly | transient induction | significantly increased | 2 to 4 | significant | increased substantially |  |  |  |
| bleomycin [BLM] |  |  |  |  |  | induced | significantly less than those of p21 and PUMA |  |  |  |  | increased continuously for 8 hours | significantly increased |  |  |  | confirmed; also recorded: fragmentation of DNA was observed | more than 0.1 VM | induced |
